Data: PubChem BioAssay (NCI)
Where “and” joins values, the source holds several entries; their conditions need not be identical. Equal entries are not always repeated.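 Interpolation was linear, between the two tested concentrations surrounding the appropriate level; five concentrations were tested over 48 hours in 96-well plates. Abbreviation: GI50, concentration required for 50% inhibition of growth. At the TGI there is no net growth.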 *1 amine or outer side, *2 acyl side, *3 side chain or, on linkers, in order; H or OH if unused. Where a SMILES comes first, the peptide text is derived from it. Bridges are numbered along the chain shown (N, C = ends). [ ]: non-standard residue; d: D form. The star is where a group is joined. X19 = O=C([C@H](N[*:1])c1ccc(O[C@H]2O[C@@H](CO)[C@@H](O)[C@@H](O)[C@H]2O[C@@H]2O[C@H](CO)[C@H](O)[C@H](O)[C@@H]2O)cc1)[*:2]; X18 = NC(=O)[C@@H](O[*:3])[C@H](N[*:1])C(=O)[*:2]; X20 = O=C([C@H](N[*:1])c1ccc(O)c(Cl)c1)[*:2]; d(aThr) = C[C@@H](O)[C@@H](N)C(=O)O; dHpg = N[C@@H](C(=O)O)c1ccc(O)cc1; X17 = CC(C)C/C=C/C=C/C(=O)*; dOrn = NCCC[C@@H](N)C(=O)O

Each molecule was assayed on MDA-MB-468 breast (assay: NCI-60 cell line screen, 48 h).
In the case of `O=C1c2cccc3cc([N+](=O)[O-])cc(c23)C(=O)N1CCN1CCCC1`, the GI50 is reported as 605 nM and the TGI is reported as 2440 nM.
Molecule `COc1ccc(Cl)cc1NC(=O)c1c(NC(=O)C(F)(F)C(F)(F)F)sc2c1CCCCC2` has a GI50 of 765 nM and a TGI of 4680 nM.
For `CN(C)CCCN=c1cc2c(=O)n(CCCN(C)C)c(=O)c3c(NCCCN(C)C)cc4c(O)n(CCCN(C)C)c(=O)c1c4c3-2`, the GI50 was 1300 nM and the TGI was 3580 nM.
`O=C1/C(=C/c2ccccc2Br)COc2ccc(O)c(O)c21` was tested, and the GI50 was 1650 nM and the TGI was 3940 nM.
Molecule `COc1ccc([C@@H]2[C@@H](O)C(=O)N2c2cc(OC)c(OC)c(OC)c2)cc1` has a GI50 of 24.3 nM and a TGI of 67.7 nM.
In the case of `CCn1cc(C(=O)N/N=C/c2cccc(F)c2)c(=O)c2cc(F)c(N3CCNC(C)C3)c(F)c21` (centres undefined), the GI50 is reported as 1640 nM and the TGI is reported as 3180 nM.
`COc1cc(/C=C2\CN(S(=O)(=O)c3ccc(C)cc3)C/C(=C\c3cc(CN4CCCCC4)c(O)c(OC)c3)C2=O)cc(CN2CCCCC2)c1O` was tested, and the GI50 was 1940 nM and the TGI was 3990 nM.
For `C#Cc1cccc(Nc2ncnc3ccc(-c4cnc(Cl)c(NS(C)(=O)=O)c4)cc23)c1`, the GI50 was 178 nM and the TGI was 880 nM.
Molecule `O=S(=O)(NCCCNc1cc(-c2cn(-c3ccccc3)nc2-c2cccc(O)c2)ccn1)c1cccc2ccccc12` has a GI50 of 1850 nM and a TGI of 6010 nM.
Work on `C=C1SC(=Nc2ccccc2Cl)N(C(=O)c2sc3ccccc3c2Cl)C1(C)C` yielded a GI50 of 12600 nM and a TGI greater than 100000 nM.
`N/C(=N\c1nc2ccccc2s1)NC(=O)Nc1ccccc1Cl` showed a GI50 of 317 nM and a TGI of 5920 nM.
`Cc1cccc2c1O/C(=C\c1ncc([N+](=O)[O-])n1C)C2=O` gave a GI50 of 1410 nM and a TGI of 4010 nM.
For `Cc1cccc2c1NC(=O)[C@@]21[C@H](C(=O)c2ccccc2)[C@]2(C(=O)Nc3ccccc32)[C@H]2CCCN21`, the GI50 was 22300 nM and the TGI was greater than 100000 nM.
With `O=C(O[C@H]1CN[C@H](C#Cc2cc3ncnc(Nc4ccc(OCc5cccc(F)c5)c(Cl)c4)c3s2)C1)N1CCOCC1` the GI50 was 391 nM and the TGI was 4780 nM.
In the case of `COc1cc2c(Nc3ccc(Br)cc3F)ncnc2cc1OCC1CCN(C)CC1`, the GI50 is reported as 455 nM and 452 nM and the TGI is reported as 2570 nM and 3530 nM.
With `Cc1cc(C(NC(=O)CCCCCNc2cccc3c2C(=O)N(C2CCC(=O)NC2=O)C3=O)c2cccnc2)c(O)c2ncccc12` (centres undefined) the GI50 was less than 10 nM and the TGI was 32.8 nM.
`NC(=O)c1cc(Cl)ccc1NC(=O)c1ccccc1-c1ccccc1` gave a GI50 of 448 nM and a TGI of 48700 nM.
`Oc1ccc2ccccc2c1N=Nc1ccccn1` gave a GI50 of 1410 nM and a TGI of 4890 nM.
In the case of `O=C(Nc1ccc(Cl)cc1)c1cc2cc(F)ccc2cc1O`, the GI50 is reported as 2470 nM and the TGI is reported as 6170 nM.
With `O=C1/C(=C/c2ccccc2)CN(CCC(=O)N2C/C(=C\c3ccccc3)C(=O)/C(=C/c3ccccc3)C2)C/C1=C\c1ccccc1` the GI50 was 9330 nM and the TGI was 42800 nM.
With `CCC(c1ccc(OC)cc1)C(CC)c1ccc(O)c(CN2CCCC2)c1` (centres undefined) the GI50 was 1620 nM and the TGI was 3690 nM.
Work on `CC1OC(O[C@H]2/C=C/C=C/C=C/C=C/C=C/C=C/C=C/[C@H](C)[C@@H](O)[C@@H](C)[C@H](C)OC(=O)C[C@H](O)C[C@H](O)CC[C@@H](O)[C@H](O)C[C@H](O)C[C@]3(O)C[C@H](O)[C@@H](C(=O)O)[C@H](C2)O3)C(O)C(N)C1O` (some centres undefined) yielded a GI50 of 53300 nM and a TGI greater than 100000 nM.
`C[C@@H](Oc1cc(NS(=O)(=O)N2CCC2)nc(SCc2cccc(F)c2F)n1)[C@@H](O)CO` showed a GI50 greater than 100000 nM and a TGI greater than 100000 nM.
In the case of `COc1ccccc1N1CCN(C(=O)c2ccc(NS(=O)(=O)c3cccc4cccnc34)cc2)CC1`, the GI50 is reported as greater than 28900 nM and the TGI is reported as greater than 100000 nM.
`COc1c(B(O)O)cccc1-c1nc2c(F)cc3[nH]ncc3c2c2c1CCCC2` gave a GI50 of 1060 nM and a TGI of 3690 nM.
With `Cc1ccc2c(N/N=C\c3ccco3)cc(C)nc2n1` the GI50 was 2680 nM and the TGI was 7470 nM.
`Cc1nn(-c2ccccc2)c2ncnc(N/N=C/c3ccccc3O)c12` showed a GI50 of 1560 nM and a TGI of 8590 nM.
With `CCCCNC(=O)Oc1ccc2c(=O)c3sc4c(=O)c5ccccc5c(=O)c4c3c(=O)c2c1` the GI50 was 1450 nM and the TGI was 3390 nM.
Molecule `COC(=O)c1cc2c3c(cc(O)c2[nH]1)N(C(=O)C1Cc2cc(OC)c(OC)c(OC)c2N1)CC3CCl` (centres undefined) has a GI50 of less than 10 nM and a TGI of less than 10 nM.
For `CC(C)C/C=C/C=C/C(=O)N[C@@H](CC(N)=O)C(=O)N[C@@H]1C(=O)N[C@H](c2ccc(O)cc2)C(=O)N[C@H](CCCN)C(=O)N[C@H]([C@@H](C)O)C(=O)N[C@H](c2ccc(O)cc2)C(=O)N[C@H](c2ccc(O)cc2)C(=O)N[C@H]([C@H](C)O)C(=O)N[C@H](Cc2ccccc2)C(=O)N[C@H](CCCN)C(=O)N[C@H](c2ccc(O[C@H]3O[C@@H](CO)[C@@H](O)[C@@H](O)[C@H]3O[C@@H]3O[C@H](CO)[C@H](O)[C@H](O)[C@@H]3O)cc2)C(=O)N[C@H]([C@H](C)O)C(=O)N[C@H](c2ccc(O)cc2)C(=O)NCC(=O)N[C@H](CC(C)C)C(=O)N[C@H](C)C(=O)N[C@H](c2ccc(O)c(Cl)c2)C(=O)O[C@@H]1C(N)=O` (X17-N[X18][dHpg][dOrn][d(aThr)][dHpg][dHpg][dT][dF][dOrn][X19][dT][dHpg]G[dL][dA][X20]; ester 2-C), the GI50 was 19700 nM and the TGI was 56700 nM.
Work on `O=C1CCC2=C3C4CCCCC4C(=O)C4CCCC(OC2C1)C34` (centres undefined) yielded a GI50 of 1870 nM and a TGI of 5200 nM.
With `COc1cccc(-c2nc(-c3ccc(NC(=O)c4ccccc4)cc3)[nH]c2-c2ccnc(Br)c2)c1` the GI50 was 2870 nM and the TGI was greater than 100000 nM.
In the case of `O=c1ccccc(-c2ccc(-c3ccco3)cc2)c1O`, the GI50 is reported as 320 nM and the TGI is reported as 3300 nM.
Molecule `COc1ccc(-c2csc(NC(=O)N3CCN(c4cc5c(cc4F)c(=O)c(C(=O)O)cn5C4CC4)CC3)n2)cc1` has a GI50 of 1140 nM and a TGI of 8130 nM.
`N#C/C(=C/C=C/c1ccccc1)S(=O)c1ccccc1` (centres undefined) gave a GI50 of 274 nM and a TGI of 987 nM.
In the case of `CCC1CCCCN1C(=S)N/N=C(\C)c1ccccn1` (centres undefined), the GI50 is reported as less than 15.3 nM and the TGI is reported as 503 nM.
`CNC(=O)c1cncc(/C=C/c2c(C)cccc2C)c1` showed a GI50 greater than 22700 nM and a TGI greater than 25000 nM.
For `COc1cc([C@@H]2c3cc4c(cc3[C@H](OC(C)=O)[C@H]3COC(=O)[C@H]23)OCO4)cc(OC)c1OC`, the GI50 was 29.5 nM and the TGI was greater than 100000 nM.
In the case of `O=C1/C=C/[C@@H](O)[C@@H]2C[C@@H](O)C[C@H]2/C=C/CCC[C@H](CO)O1`, the GI50 is reported as 419 nM and the TGI is reported as 2770 nM.
`CC(C)(C)N1CC(OC(N)=O)C1` showed a GI50 greater than 100000 nM and a TGI greater than 100000 nM.
Molecule `COc1cc(C)[nH]c(=O)c1CN1CCc2c(Cl)cc([C@H](OC)C3COC3)c(Cl)c2C1=O` has a GI50 greater than 100000 nM and a TGI greater than 100000 nM.
`O=C(NC1CCN(Cc2ccccc2)CC1)c1cc(C(=O)NC2CCN(Cc3ccccc3)CC2)cc(C(=O)NC2CCN(Cc3ccccc3)CC2)c1` gave a GI50 of 866 nM and a TGI of 1890 nM.
